How the values were obtained:
Assay type in all cases: cell-based, Pseudomonas aeruginosa
[1] = test system: PqsR (pqsA promoter, PA14 mCTX::PpqsA-lux); assay: Whole cell biosensor reporter assay, PA14 mCTX::PpqsA-lux; conditions: Pseudomonas aeruginosa, PA14, read-out: PA14 Remaining Activity %
Description: (§1) To determine the ability of the quinolines to inhibit PqsR functionality, the P. aeruginosa biosensor strains, PAO1-L and PA14, incorporating a chromosomal mCTX::PpqsA-lux transcriptional fusion, were used. These report on the activation of the pqsA promoter, regulated by PqsR [25]. PAO1-L and PA14 were chosen because they are genetically amenable and belong to the two major P. aeruginosa genomic groups. The quinolone compounds were incubated with the corresponding strain, and luminescence and optical density readings were recorded to monitor the effect of the quinolines on PqsR activity and bacterial growth, respectively. The compounds were screened at 10 µM concentration, and the activity was compared to a control of DMSO (0.1%) (Figure 3a). To be considered a hit, a threshold of at least 50% inhibition of the test compound, relative to the negative control had to be reached, without affecting bacterial growth. […] Concentration-response experiments were then carried out to determine the IC50 values (Figure 3b,c), which are summarised in Table 1.
(§2) Strains PA14 mCTX::PpqsA-lux and PAO1-L mCTX::PpqsA-lux were constructed using plasmid mini-CTX::PpqsA-lux, as previously described, and the assay was performed according to a published protocol. For screening, the compounds were tested at a concentration of 10 µM, which was prepared from a 10 mM stock, in DMSO.

[2] = test system: PqsR (pqsA promoter, PAO1-L mCTX::PpqsA-lux); assay: Whole cell biosensor reporter assay, PAO1-L mCTX::PpqsA-lux; conditions: Pseudomonas aeruginosa, PAO1, read-out: PAO1-L Remaining Activity %
Description: as §1, §2

PAO1-L biofilms = assay: Biofilm assay on glass coverslips, GFP-labelled PAO1-L; conditions: Ia 34 µM; tobramycin 100 µg/mL for 4 h
Description: (§3) One of the clinical challenges of P. aeruginosa infections is the difficulty associated with the effective treatment of biofilms due to their high resistance to antibiotics. […] The effect of Ia, with or without tobramycin, on PA14 and PAO1-L biofilms grown on glass coverslips, was determined. […] The experiment was performed using green fluorescent labelled (GFP)-labelled PAO1-L and PA14 strains, grown under four different conditions: (i) no treatment (control); (ii) compound Ia at 8 µM in PA14 and 34 µM in PAO1-L (concentrations equal to 3× IC50); (iii) tobramycin at 100 µg/mL; (iv) Ia and tobramycin, at the same concentrations as (ii) and (iii).
(§4) Biofilms were cultivated on borosilicate glass coverslips in petri dishes. P. aeruginosa strains, PAO1-L and PA14, were labelled by transformation with plasmid pMMG, which constitutively expresses GFP from the Ptac promoter. Labelled strains were grown at 37 °C, for 16 h, in 2 mL RPMI-1640 (Lonza, Slough, UK), supplemented with 20 mM D-glucose (Sigma–Aldrich, Dorset, UK) and 2 µM FeCl3 (Sigma–Aldrich, Dorset, UK). Cultures were diluted 1:100 in fresh medium and allowed to grow for a further 4 h, or until an OD600 of 0.5 was reached. The mid-logarithmic cultures were diluted to an OD600 of 0.01 in 25 mL RPMI, supplemented with glucose and FeCl3, and inoculated into petri dishes containing UV sterilised borosilicate glass coverslips (22 × 22 mm, thickness no1) (VWR, Lutterworth, UK). Bacterial cells were seeded at 37 °C under static conditions for 1.5 h, and compound Ia was added to the culture at a concentration of 34 µM for P. aeruginosa PAO1-L and 8 µM for PA14 before dishes were moved to a shaker at 60 rpm and 37 °C for 15 h to form mature biofilms. Tobramycin and propidium iodide were added to the 15 h-old cultures at concentrations of 100 µg/mL and 2 µM, respectively, followed by further incubation for 4 h. Coverslips were examined under a Laser Scanning Fluorescent Microscope (LSM2, Zeiss, Oberkochen, Germany). Biofilms were visualised using egfp mode at an excitation wavelength of 488nm. Imaging was carried out using Zen 2011 imaging software (Zeiss, Oberkochen, Germany). A total of 5 Z-stacked images were collected per coverslip. Sampling was conducted at random from the central portion of each coverslip. Biomass was calculated using Image J (NIH, Bethesda, MD, USA) and Comstat 2.1. Software package (www.comstat.dk, lyngby, Denmark).

PA14 biofilms = assay: Biofilm assay on glass coverslips, GFP-labelled PA14; conditions: Ia 8 µM; tobramycin 100 µg/mL for 4 h
Description: as §3, §4

Row | Compound | activity at 10 µM [1] [%] | activity at 10 µM [2] [%] | further results
1 | CC(=O)N1N=C(c2ccc(C)cc2)CC1c1cccc(Nc2ccnc3cc(Cl)ccc23)c1 (stereo not shown) [IIb] | 96.2 ± 4.34 | 59.5 ± 1.86 | 
2 | COc1ccc(C2=NN(C(C)=O)C(c3cccc(Nc4ccnc5cc(Cl)ccc45)c3)C2)cc1 (stereo not shown) [IIc] | 115 ± 2.13 | 120 ± 8.28 | 
3 | COc1cc(C2=NN(C(C)=O)C(c3cccc(Nc4ccnc5cc(Cl)ccc45)c3)C2)cc(OC)c1OC (stereo not shown) [IId] | 110 ± 1.6 | 127 ± 9.69 | 
4 | CC(=O)N1N=C(c2ccc(F)cc2)CC1c1cccc(Nc2ccnc3cc(Cl)ccc23)c1 (stereo not shown) [IIe] | 120 ± 1.59 | 82.6 ± 22.7 | 
5 | CC(=O)N1N=C(c2ccc(Cl)cc2)CC1c1cccc(Nc2ccnc3cc(Cl)ccc23)c1 (stereo not shown) [IIf] | 103 ± 4.91 | 90.2 ± 3.84 | 
6 | CC(=O)N1N=C(c2ccc(Br)cc2)CC1c1cccc(Nc2ccnc3cc(Cl)ccc23)c1 (stereo not shown) [IIg] | 109 ± 2.79 | 63.7 ± 5.01 | 
7 | CC(=O)N1N=C(c2ccc3c(c2)OCO3)CC1c1cccc(Nc2ccnc3cc(Cl)ccc23)c1 (stereo not shown) [IIh] | 115 ± 6.02 | 65.8 ± 5.63 | 
8 | CC(=O)N1N=C(c2ccc(C)cc2)CC1c1cccc(Nc2ccnc3cc(C(F)(F)F)ccc23)c1 (stereo not shown) [IIj] | 108 ± 6.05 | 97.3 ± 6.46 | 
9 | COc1ccc(C2=NN(C(C)=O)C(c3cccc(Nc4ccnc5cc(C(F)(F)F)ccc45)c3)C2)cc1 (stereo not shown) [IIk] | 118 ± 5.97 | 66.7 ± 0.42 | 
10 | COc1cc(C2=NN(C(C)=O)C(c3cccc(Nc4ccnc5cc(C(F)(F)F)ccc45)c3)C2)cc(OC)c1OC (stereo not shown) [IIl] | 103 ± 4.84 | 86.1 ± 2.39 | 
11 | CC(=O)N1N=C(c2ccc(F)cc2)CC1c1cccc(Nc2ccnc3cc(C(F)(F)F)ccc23)c1 (stereo not shown) [IIm] | 99.9 ± 3.17 | 90.2 ± 4.4 | 
12 | CC(=O)N1N=C(c2ccc(Cl)cc2)CC1c1cccc(Nc2ccnc3cc(C(F)(F)F)ccc23)c1 (stereo not shown) [IIn] | 98.1 ± 11.4 | 97.8 ± 5.52 | 
13 | CC(=O)N1N=C(c2ccc(Br)cc2)CC1c1cccc(Nc2ccnc3cc(C(F)(F)F)ccc23)c1 (stereo not shown) [IIo] | 95.6 ± 9.58 | 80.8 ± 5.06 | 
14 | CC(=O)N1N=C(c2ccc3c(c2)OCO3)CC1c1cccc(Nc2ccnc3cc(C(F)(F)F)ccc23)c1 (stereo not shown) [IIp] | 99.6 ± 4.09 | 71.6 ± 5.07 | 
15 | Cc1ccc(C2=NN(C=O)C(c3cccc(Nc4ccnc5cc(Cl)ccc45)c3)C2)cc1 (stereo not shown) [Ib] | 78.4 ± 6.51 | 77 ± 2.25 | 
16 | COc1ccc(C2=NN(C=O)C(c3cccc(Nc4ccnc5cc(Cl)ccc45)c3)C2)cc1 (stereo not shown) [Ic] | 102 ± 11.7 | 100 ± 8.46 | 
17 | COc1cc(C2=NN(C=O)C(c3cccc(Nc4ccnc5cc(Cl)ccc45)c3)C2)cc(OC)c1OC (stereo not shown) [Id] | 110 ± 15 | 130 ± 5.04 | 
18 | O=CN1N=C(c2ccc(F)cc2)CC1c1cccc(Nc2ccnc3cc(Cl)ccc23)c1 (stereo not shown) [Ie] | 70.4 ± 6.53 | 40.6 ± 3.71 | 
19 | O=CN1N=C(c2ccc(Br)cc2)CC1c1cccc(Nc2ccnc3cc(Cl)ccc23)c1 (stereo not shown) [Ig] | 94.8 ± 8.91 | 88.1 ± 6.05 | 
20 | O=CN1N=C(c2ccc3c(c2)OCO3)CC1c1cccc(Nc2ccnc3cc(Cl)ccc23)c1 (stereo not shown) [Ih] | 85.8 ± 9.42 | 49.9 ± 12 | 
21 | Cc1ccc(C2=NN(C=O)C(c3cccc(Nc4ccnc5cc(C(F)(F)F)ccc45)c3)C2)cc1 (stereo not shown) [Ij] | 84.9 ± 8.17 | 93.7 ± 6.15 | 
22 | COc1ccc(C2=NN(C=O)C(c3cccc(Nc4ccnc5cc(C(F)(F)F)ccc45)c3)C2)cc1 (stereo not shown) [Ik] | 99.7 ± 9.37 | 78.6 ± 5.75 | 
23 | COc1cc(C2=NN(C=O)C(c3cccc(Nc4ccnc5cc(C(F)(F)F)ccc45)c3)C2)cc(OC)c1OC (stereo not shown) [Il] | 106 ± 15.3 | 85.8 ± 2.39 | 
24 | O=CN1N=C(c2ccc(F)cc2)CC1c1cccc(Nc2ccnc3cc(C(F)(F)F)ccc23)c1 (stereo not shown) [Im] | 74.9 ± 8.28 | 65.1 ± 4.89 | 
25 | O=CN1N=C(c2ccc(Cl)cc2)CC1c1cccc(Nc2ccnc3cc(C(F)(F)F)ccc23)c1 (stereo not shown) [In] | 93.6 ± 4.45 | 61.8 ± 3.97 | 
26 | O=CN1N=C(c2ccc(Br)cc2)CC1c1cccc(Nc2ccnc3cc(C(F)(F)F)ccc23)c1 (stereo not shown) [Io] | 80.6 ± 6.26 | 68.5 ± 3.43 | 
27 | O=CN1N=C(c2ccc3c(c2)OCO3)CC1c1cccc(Nc2ccnc3cc(C(F)(F)F)ccc23)c1 (stereo not shown) [Ip] | 81.4 ± 9.36 | 84.3 ± 5.48 | 
28 | NC[C@H]1O[C@H](O[C@H]2[C@H](O)[C@@H](O[C@H]3O[C@H](CO)[C@@H](O)[C@H](N)[C@H]3O)[C@H](N)C[C@@H]2N)[C@H](N)C[C@@H]1O [tobramycin, reference compound] |  |  | Effect on biofilm biomass, PAO1-L (PAO1-L biofilms): significantly reduced biofilm biomass; Effect on cell viability in biofilm (propidium iodide), PAO1-L (PAO1-L biofilms): increasing the proportion of dead bacterial cells substantially; Effect on biofilm biomass, PA14 (PA14 biofilms): significantly reduced biofilm biomass; Effect on cell viability in biofilm (propidium iodide), PA14 (PA14 biofilms): increasing the proportion of dead bacterial cells substantially

Source: PMC6017655, “In Silico and in Vitro-Guided Identification of Inhibitors of Alkylquinolone-Dependent Quorum Sensing in Pseudomonas aeruginosa” (Molecules : A Journal of Synthetic Chemistry and Natural …, 2018)
